Data reported in patent publication US11331379B2, “Compositions and methods for regulating pancreatic beta cell function using adipsin” (Dana-Farber Cancer Institute, Inc., priority 2014, dated 2022).

Experiments:
C3aR1 [1] = target: T1, C3aR1 (Mus musculus, UniProt O09047); assay: C3aR1 antagonist treatment of adipsin-adenovirus-transduced db/db mice, i.p. GTT and plasma insulin; type: in vivo
T1 construct: endogenous in cells; host or cells: db/db mice (Jackson Laboratories, Stock 000697), whole animal
T1 sequence (O09047 1-477): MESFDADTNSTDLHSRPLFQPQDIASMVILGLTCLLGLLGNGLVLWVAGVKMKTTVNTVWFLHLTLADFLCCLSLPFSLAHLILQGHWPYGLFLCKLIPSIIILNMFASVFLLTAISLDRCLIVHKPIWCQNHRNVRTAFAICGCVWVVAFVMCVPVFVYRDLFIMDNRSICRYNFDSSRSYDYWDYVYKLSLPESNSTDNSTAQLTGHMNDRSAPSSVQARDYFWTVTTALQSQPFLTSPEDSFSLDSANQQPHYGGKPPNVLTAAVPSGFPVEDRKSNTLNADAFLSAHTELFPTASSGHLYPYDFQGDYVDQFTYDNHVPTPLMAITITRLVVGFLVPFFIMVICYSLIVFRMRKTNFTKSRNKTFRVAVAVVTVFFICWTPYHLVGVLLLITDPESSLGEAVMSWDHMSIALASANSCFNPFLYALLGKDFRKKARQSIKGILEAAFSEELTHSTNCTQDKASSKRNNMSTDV
Source text: Wild-type (WT) and Adipsin^−/− mice (from G. Stahl, Brigham and Women's Hospital, Boston, Mass., USA) were backcrossed 7-10 generations to C57BL/6 (B6) background. Control littermate mice from same backcrossed generations were used for experiments. B6 mice were fed a regular chow diet or a 60% kCal high fat diet (Research Diets, New Brunswick, N.J., USA) for the indicated times. db/db mice (Stock 000697) were purchased from Jackson laboratories (Bar Harbor, Me., USA). For adenoviral expression studies, mice were injected intravenously with lacZ or adipsin-expressing pAd adenoviral vectors (Life Technologies, Grand Island, N.Y., USA) and assayed 5 days later. For C3aR1 antagonist experiments, SB 290157 (N^2-[(2,2-Diphenylethoxy)acetyl]-L-arginine, TFA, Millipore, Billerica, Mass., USA) dosed at 30 mg/kg or vehicle (10% ethanol) was administered by intraperitoneally (i.p.) injections bis in die (b.i.d.) from days 3-5 after adenovirus. Mice were fasted overnight for glucose tolerance tests and given an i.p. injection of D-glucose ([…] for regular diet mice). For insulin tolerance tests, mice were fasted for 5 hours and given an i.p. injection of insulin (0.75 units/kg body weight). Blood samples were taken from the tail vein and measured with a glucometer. The mice were housed in a facility accredited by the American Association for Laboratory Animal Care. The Institutional Animal Care and Use Committee of the Beth Israel Deaconess Medical Center approved studies using animals.

islets [2] = assay: cytoplasmic free Ca2+ measurement in perifused islets (Fura-2); type: cell-based, mouse
Procedure: (§1) Recombinant C3a and C5a proteins (R&D Systems, Minneapolis, Minn., USA) were used at a concentration of 100 nM. Anti-adipsin antibody for Western blot analysis was from Santa Cruz Biotechnology, Santa Cruz, Calif., USA). Antibodies to C3aR1 (Santa Cruz Biotechnology), C5aR1 (Biolegend, San Diego, Calif., USA) and C5L2 (Hycult Biotechnology, Plymouth Meeting, Pa., USA) were used for flow cytometry. RNA isolation and reverse transcription were performed with TRIzol® (Life Technologies), RNeasy (Qiagen, Valencia, Calif., USA) and cDNA synthesis (Agilent Technologies, Santa Clara, Calif., USA) kits. qPCR reactions were done with SYBR green on an ABI PRISM® 7900HT real time PCR system (Life Technologies).
For measurements of cytoplasmic free Ca^2+ concentration, islets were loaded with 2 μM Fura-2/AM (Molecular Probes, Eugene, Oreg., USA) for 60 min. in the presence or absence of C3a in a buffer containing (in mM) 125 NaCl, 5.9 KCl, 1.28 CaCl2, 1.2 MgCl2, 25 HEPES, and 3 glucose and 0.1% BSA (pH 7.4). After loading, a single islet was transferred to an open perifusion chamber maintained at 37° C. and [Ca^2+], was measured as the 340/380 nm fluorescence ratio using a Spex FluoroLog® spectrophotometer coupled to a Zeiss Axiovert 35 M microscope with a Zeiss Fluar 40×/1.30 oil objective (Carl Zeiss, Gottingen, Germany). Concentrations of 20 mM glucose and 50 mM KCl (in the presence of 3 mM glucose) were used for islet stimulation.

islets [3] = assay: oxygen consumption rate (OCR) of islets, XF24 analyzer; type: cell-based, mouse
Procedure: as §1
Real-time measurements of mitochondrial oxygen consumption rate (OCR) were performed using the XF24 extracellular flux analyzer instrument and the AKOS algorithm built in the XF24 v1.7.0.74 software (Seahorse Bioscience, Inc., Billerica, Mass., USA). Islets were rinsed with sodium bicarbonate-free DMEM supplemented with 0.5% BSA and 3 mM glucose and 60 islets were distributed per well and recounted for OCR measurements. After baseline measurements, substrates or inhibitors of interests were added in single 50 μl injections delivered through individual injection ports. […] The respiratory rate of each islet sample was measured at 37° C. and analyzed using the Seahorse XF24 v1.5.0.69 software.

C3aR1 [4] = target: T1, C3aR1; assay: GSIS assay in islets from wild-type and C3aR1-deficient mice with or without C3a; type: cell-based; conditions: WT versus C3aR1-deficient islets
Source text: Panels A and B show the relative expression of Adipsin (Panel A) and C3 (Panel B) in liver, quadriceps muscle (quad), islets, epididymal (epi) and inguinal (ing) fat. Samples were quantitated by qPCR. Panels C-E show the results of flow cytometry performed on islet cells with antibodies to the complement/anaphylatoxin receptors C3aR1 (Panel C), C5aR1 (Panel D), and C5L2 (Panel E). Panels F-G show the results of isolated islets from WT mice on a chow diet (Panel F) or HFD (Panel G) subjected to a GSIS assay in the presence or absence of recombinant C3a and C5a with the indicated concentrations of glucose. Panels H and I show the results of db/db mice transduced with lacZ or adipsin adenovirus ([…]) treated with vehicle or C3aR antagonist (SB 290157) at a dose of 30 mg/kg b.i.d. for 3 days and subjected to an i.p. GTT with measurements of blood glucose concentrations (Panel H) and plasma insulin levels (Panel I) at the indicated times. Statistics for GTT assays between groups: lacZ/vehicle vs. adipsin/vehicle, p=0.05; adipsin/vehicle vs. adipsin/SB 290157, p<0.01; lacZ/SB 290157 vs. adipsin/vehicle, p<0.01. […]
Islets were isolated from pancreata of the indicated genotype with collagenase digestion as previously described (Danial et al. (2008) Nat. Med. 14:144-153). […] Insulin was measured by ELISA using mouse insulin as a standard (Crystal Chem Inc., Downers Grove, Ill., USA).

murine islets = assay: static glucose-stimulated insulin secretion (GSIS) assay in isolated islets; type: cell-based, mouse; conditions: for enhancement of insulin secretion: islets from WT mice on chow diet
Procedure: as §1
Islets were isolated from pancreata of the indicated genotype with collagenase digestion as previously described (Danial et al. (2008) Nat. Med. 14:144-153). For static incubation (batch release) assays, islets were handpicked and placed into basal Krebs buffer containing 3 mM glucose followed by transfer into Krebs solution containing the indicated concentrations of glucose or secretagogues. After 45 min incubation at 37° C., the islets were pelleted and the supernatant was collected for insulin measurement. The pellet was solubilized to assess intracellular insulin content. Insulin was measured by ELISA using mouse insulin as a standard (Crystal Chem Inc., Downers Grove, Ill., USA).

N=C(N)NCCC[C@H](NC(=O)COCC(c1ccccc1)c1ccccc1)C(=O)O.O=C(O)C(F)(F)F [SB 290157, N^2-[(2,2-Diphenylethoxy)acetyl]-L-arginine, TFA]
improvements in insulin secretion conferred by the adipsin adenovirus (C3aR1 [1]; db/db mice with adipsin adenovirus, antagonist 30 mg/kg i.p. b.i.d. for 3 days): nearly completely reversed
improvements in glucose tolerance conferred by the adipsin adenovirus (C3aR1 [1]; db/db mice with adipsin adenovirus, antagonist 30 mg/kg i.p. b.i.d. for 3 days, i.p. GTT): nearly completely reversed
insulin induction from time 0 to 20 minutes (C3aR1 [1]; db/db mice, adipsin adenovirus plus SB 290157 30 mg/kg b.i.d. 3 days, i.p. glucose challenge): 1.4 fold

C3a: Recombinant C3a protein (R&D Systems); complement peptide, direct product of C3 convertase generated by adipsin
basal levels of [Ca2+]i (islets [2]; 3 mM glucose, C3a-treated versus control islets): similar
[Ca2+]i in response to glucose and KCl (islets [2]; 20 mM glucose and KCl stimulation): potently augmented
response times of [Ca2+]i (islets [2]; C3a-treated versus non-treated islets): similar
increase of [Ca2+]i area under the curve (islets [2]; KCl stimulation): ~100%
increase of peak [Ca2+]i (islets [2]; KCl stimulation): ~100%
increase of [Ca2+]i area under the curve (islets [2]; glucose stimulation (20 mM)): ~50%
increase of peak [Ca2+]i (islets [2]; glucose stimulation (20 mM)): ~50%
increases in [Ca2+]i (islets [2]; isolated islets perifused with glucose or KCl in the presence of C3a): 50-100%
oxygen consumption with glucose challenge (islets [3]; 20 mM glucose, acute C3a, versus control islets): increased oxygen consumption
ATP-coupled respiration (islets [3]; islets, C3a versus control): increases ATP-coupled respiration
C3a-mediated potentiation of glucose-stimulated insulin secretion (C3aR1 [4]): C3aR1 is required
insulin secretion in conjunction with tolbutamide (murine islets; 0.25 mM tolbutamide, C3a 100 nM): further stimulated insulin secretion
insulin secretion in conjunction with KCl (murine islets; 30 mM KCl, C3a 100 nM): further stimulated insulin secretion
enhancement of insulin secretion (murine islets; high glucose, 100 nM, acute): 30-40%
insulin secretion in diabetic islets (murine islets; islets from diabetic mice fed a HFD, 100 nM): stimulated insulin secretion
enhancement of insulin secretion (murine islets; low glucose, 100 nM): not low

B1: C5a: Recombinant C5a protein (R&D Systems), complement anaphylatoxin (protein, UniProt P01031 678-751, looked up)
C5a anaphylatoxin: TLQKKIEEIAAKYKHSVVKKCCYDGACVNNDETCEQRAARISLGPRCIKAFTECCVVASQLRANISHKDMQLGR
modifications: C5a anaphylatoxin
enhancement of insulin secretion (murine islets; C5a 100 nM, GSIS): did not show this effect
